Assay results as given in patent publication US7625841B2, “Substituted thiene-3-ylsulphonylamino(thio)carbonyltriazolin(ethi)ones” (Bayer CropScience AG, priority 2001, dated 2009).

Legend:
Format in all cases: in vivo
[1] = test system: crop plants such as, for example, maize, oilseed rape and wheat; assay: Post-emergence test, summary for crop plants
Description: (§1) • Solvent: 5 parts by weight of acetone • Emulsifier: 1 part by weight of alkylaryl polyglycol ether
(§2) To produce a suitable preparation of active compound, 1 part by weight of active compound is mixed with the stated amount of solvent, the stated amount of emulsifier is added and the concentrate is diluted with water to the desired concentration.
(§3) Test plants of a height of 5-15 cm are sprayed with the preparation of active compound such that the particular amounts of active compound desired are applied per unit area. The concentration of the spray liquor is chosen such that the particular amounts of active compound desired are applied in 1000 l of water/ha.
(§4) After three weeks, the degree of damage to the plants is rated in % damage in comparison to the development of the untreated control.
(§5) The figures denote: • 0%=no effect (like untreated control) • 100%=total destruction

Stellaria = assay: Pre-emergence test/greenhouse; details: greenhouse, application rate 15 gai/ha, rated after three weeks, 0%=no effect, 100%=total destruction
Description: as §1
(§6) To produce a suitable preparation of active compound, 1 part by weight of active compound is mixed with the stated amount of solvent, the stated amount of emulsifier is added and the concetrate is diluted with water to the desired concentration.
(§7) Seeds of the test plants are sown in normal soil. After 24 hours, the soil is sprayed with the preparation of active compound such that the particular amount of active compound desired is applied per unit area. The concentration of active compound in the spray liquor is chosen such that the particular amount of active compound desired is applied in 1000 litres of water per hectare.
(§8) After three weeks, the degree of damage to the plants is rated in % damage in comparison to the development of the untreated control. The figures denote: • 0%=no effect (like untreated control) • 100%=total destruction

Solanum = assay: Pre-emergence test/greenhouse; details: greenhouse, application rate 15 gai/ha, rated after three weeks, 0%=no effect, 100%=total destruction
Description: as §1, §6, §7, §8

maize [2] = assay: Pre-emergence test/greenhouse; details: greenhouse, application rate 15 gai/ha, rated after three weeks, 0%=no effect, 100%=total destruction
Description: as §1, §6, §7, §8

Bromus [3] = assay: Pre-emergence test/greenhouse; details: greenhouse, application rate 15 gai/ha, rated after three weeks, 0%=no effect, 100%=total destruction
Description: as §1, §6, §7, §8

Alopecurus [4] = assay: Pre-emergence test/greenhouse; details: greenhouse, application rate 15 gai/ha, rated after three weeks, 0%=no effect, 100%=total destruction
Description: as §1, §6, §7, §8

Polygonum [5] = assay: Pre-emergence test/greenhouse; details: greenhouse, application rate 15 gai/ha, rated after three weeks, 0%=no effect, 100%=total destruction
Description: as §1, §6, §7, §8

Lolium [6] = assay: Pre-emergence test/greenhouse; details: greenhouse, application rate 15 gai/ha, rated after three weeks, 0%=no effect, 100%=total destruction
Description: as §1, §6, §7, §8

wheat [7] = assay: Pre-emergence test/greenhouse; details: greenhouse, application rate 15 gai/ha, rated after three weeks, 0%=no effect, 100%=total destruction
Description: as §1, §6, §7, §8

weeds [8] = assay: Post-emergence test, summary for weeds
Description: as §1, §2, §3, §4, §5

maize [9] = assay: Post-emergence test/greenhouse; details: greenhouse, application rate 15 gai/ha, rated after three weeks, 0%=no effect, 100%=total destruction
Description: as §1, §2, §3, §4, §5

Bromus [10] = assay: Post-emergence test/greenhouse; details: greenhouse, application rate 15 gai/ha, rated after three weeks, 0%=no effect, 100%=total destruction
Description: as §1, §2, §3, §4, §5

Avena fatua = assay: Post-emergence test/greenhouse; details: greenhouse, application rate 15 gai/ha, rated after three weeks, 0%=no effect, 100%=total destruction
Description: as §1, §2, §3, §4, §5

Alopecurus [11] = assay: Post-emergence test/greenhouse; details: greenhouse, application rate 15 gai/ha, rated after three weeks, 0%=no effect, 100%=total destruction
Description: as §1, §2, §3, §4, §5

Digitaria = assay: Post-emergence test/greenhouse; details: greenhouse, application rate 15 gai/ha, rated after three weeks, 0%=no effect, 100%=total destruction
Description: as §1, §2, §3, §4, §5

Setaria [12] = assay: Post-emergence test/greenhouse; details: greenhouse, application rate 15 gai/ha, rated after three weeks, 0%=no effect, 100%=total destruction
Description: as §1, §2, §3, §4, §5

wheat [13] = assay: Post-emergence test/greenhouse; details: greenhouse, application rate 15 gai/ha, rated after three weeks, 0%=no effect, 100%=total destruction
Description: as §1, §2, §3, §4, §5

[14] = test system: crop plants, such as, for example, maize, soyabean and wheat; assay: Pre-emergence test, summary for crop plants
Description: as §1, §6, §7, §8

weeds [15] = assay: Pre-emergence test, summary for weeds
Description: as §1, §6, §7, §8

Matricaria = assay: Pre-emergence test/greenhouse; details: greenhouse, application rate 15 gai/ha, rated after three weeks, 0%=no effect, 100%=total destruction
Description: as §1, §6, §7, §8

Amaranthus = assay: Pre-emergence test/greenhouse; details: greenhouse, application rate 15 gai/ha, rated after three weeks, 0%=no effect, 100%=total destruction
Description: as §1, §6, §7, §8

soybeans = assay: Pre-emergence test/greenhouse; details: greenhouse, application rate 15 gai/ha, rated after three weeks, 0%=no effect, 100%=total destruction
Description: as §1, §6, §7, §8

Setaria [16] = assay: Pre-emergence test/greenhouse; details: greenhouse, application rate 15 gai/ha, rated after three weeks, 0%=no effect, 100%=total destruction
Description: as §1, §6, §7, §8

Echinochloa = assay: Post-emergence test/greenhouse; details: greenhouse, application rate 15 gai/ha, rated after three weeks, 0%=no effect, 100%=total destruction
Description: as §1, §2, §3, §4, §5

Lolium [17] = assay: Post-emergence test/greenhouse; details: greenhouse, application rate 15 gai/ha, rated after three weeks, 0%=no effect, 100%=total destruction
Description: as §1, §2, §3, §4, §5

Xanthium [18] = assay: Pre-emergence test/greenhouse; details: greenhouse, application rate 15 gai/ha, rated after three weeks, 0%=no effect, 100%=total destruction
Description: as §1, §6, §7, §8

Datura = assay: Post-emergence test/greenhouse; details: greenhouse, application rate 15 gai/ha, rated after three weeks, 0%=no effect, 100%=total destruction
Description: as §1, §2, §3, §4, §5

Viola = assay: Post-emergence test/greenhouse; details: greenhouse, application rate 15 gai/ha, rated after three weeks, 0%=no effect, 100%=total destruction
Description: as §1, §2, §3, §4, §5

Xanthium [19] = assay: Post-emergence test/greenhouse; details: greenhouse, application rate 15 gai/ha, rated after three weeks, 0%=no effect, 100%=total destruction
Description: as §1, §2, §3, §4, §5

Polygonum [20] = assay: Post-emergence test/greenhouse; details: greenhouse, application rate 15 gai/ha, rated after three weeks, 0%=no effect, 100%=total destruction
Description: as §1, §2, §3, §4, §5

SMILES | compatibility with crop plants compared with the known compounds (A) and (B) [1] | degree of damage to the plants, Stellaria (Stellaria) [%] | degree of damage to the plants, Solanum (Solanum) [%] | degree of damage to the plants, maize (maize [2]) [%] | degree of damage to the plants, Bromus (Bromus [3]) [%] | degree of damage to the plants, Alopecurus (Alopecurus [4]) [%] | degree of damage to the plants, Lolium (Lolium [6]) [%] | degree of damage to the plants, wheat (wheat [7]) [%] | activity against weeds compared with the known compounds (A) and (B) (weeds [8]) | degree of damage to the plants, maize (maize [9]) [%] | degree of damage to the plants, Bromus (Bromus [10]) [%] | degree of damage to the plants, Avena fatua (Avena fatua) [%] | degree of damage to the plants, Alopecurus (Alopecurus [11]) [%] | degree of damage to the plants, wheat (wheat [13]) [%] | tolerance by crop plants [14] | activity against weeds compared with the known compounds (A) to (G) (weeds [15]) | degree of damage to the plants, Matricaria (Matricaria) [%] | degree of damage to the plants, Amaranthus (Amaranthus) [%] | degree of damage to the plants, Echinochloa (Echinochloa) [%] | degree of damage to the plants, Lolium (Lolium [17]) [%] | other results
COC(=O)c1csc(C)c1S(=O)(=O)NC(=O)n1nc(C2CC2)n(C)c1=O [Example 22] | substantially better compatibility with crop plants | 100 | 100 | 0 | 100 | 95 | 95 | 0 | considerably stronger activity against weeds | 0 | 95 | 80 | 99 | 0 | tolerated well by crop plants | considerably stronger activity against weeds |  |  |  |  | degree of damage to the plants, Polygonum (Polygonum [5]): 95%; degree of damage to the plants, Digitaria (Digitaria): 95%; degree of damage to the plants, Setaria (Setaria [12]): 90%
COCc1nn(C(=O)NS(=O)(=O)c2c(C(=O)OC)csc2C)c(=O)n1C [Example 18] | substantially better compatibility with crop plants | 95 |  | 0 |  | 95 |  | 0 | considerably stronger activity against weeds | 0 | 80 | 95 | 95 |  | tolerated well by crop plants | considerably stronger activity against weeds | 100 | 95 | 95 | 95 | degree of damage to the plants, soybeans (soybeans): 0%; degree of damage to the plants, Setaria (Setaria [16]): 95%; degree of damage to the plants, Digitaria (Digitaria): 95%; degree of damage to the plants, Setaria (Setaria [12]): 100%
CCOC(=O)c1csc(C)c1S(=O)(=O)NC(=O)n1nc(OC)n(C2CC2)c1=O [Example 56] | substantially better compatibility with crop plants | 100 | 100 | 0 | 95 |  | 95 | 0 | considerably stronger activity against weeds |  | 90 | 90 |  | 0 | tolerated well by crop plants | considerably stronger activity against weeds | 100 | 100 | 95 | 90 | degree of damage to the plants, Xanthium (Xanthium [18]): 95%; degree of damage to the plants, Datura (Datura): 90%; degree of damage to the plants, Viola (Viola): 95%; degree of damage to the plants, Xanthium (Xanthium [19]): 95%
CCOC(=O)c1csc(C)c1S(=O)(=O)NC(=O)n1nc(OCC)n(C)c1=O [Example 55] | substantially better compatibility with crop plants | 100 | 100 | 0 | 95 | 95 | 90 | 0 | considerably stronger activity against weeds | 0 | 90 |  | 90 |  | tolerated well by crop plants | considerably stronger activity against weeds |  |  | 90 | 90 | degree of damage to the plants, Xanthium (Xanthium [18]): 95%; degree of damage to the plants, Polygonum (Polygonum [5]): 95%; degree of damage to the plants, Datura (Datura): 95%; degree of damage to the plants, Xanthium (Xanthium [19]): 95%; degree of damage to the plants, Polygonum (Polygonum [20]): 90%
CCSc1nn(C(=O)NS(=O)(=O)c2c(C(=O)OC)csc2C)c(=O)n1C [Example 20] | substantially better compatibility with crop plants | 100 | 100 | 0 |  | 90 | 95 | 0 | considerably stronger activity against weeds |  | 80 |  | 90 | 0 | tolerated well by crop plants | considerably stronger activity against weeds | 100 | 95 | 100 |  | degree of damage to the plants, soybeans (soybeans): 0%; degree of damage to the plants, Viola (Viola): 100%
